US20050107473A1, “Process for producing tert-leucine” (AJINOMOTO CO. INC, priority 2002, published 2005)

Experiment: solubility of L-tert-leucine in aqueous solutions
Format: physicochemical
Conditions: 10° C.

solubility in 1N aqueous hydrochloric acid solution (1N aqueous hydrochloric acid solution): 20.4 wt %
solubility in water (water): 12.7 wt %
Compound: CC(C)(C)[C@H](N)C(=O)O [L-tert-leucine]
